Test results reported in the kinase profiling compilation of Christmann-Franck et al. (2016).

Key:
Test in all cases: radiometric filter-binding kinase assay, Kinase HotSpot
Settings in all cases: compound 0.5 µM; ATP 10 µM
[1] = biological target: EPHA7 (human) (UniProt Q15375)
[2] = biological target: SRPK1 (human) (UniProt Q96SB4)
[3] = biological target: CDK3 CCNE1 (human) (UniProt Q00526+P24864)
[4] = biological target: MKNK2 (human) (UniProt Q9HBH9)
[5] = biological target: MAP4K4 (human) (UniProt O95819)
MAP4K4 (human), sequence (O95819 whole entry, looked up): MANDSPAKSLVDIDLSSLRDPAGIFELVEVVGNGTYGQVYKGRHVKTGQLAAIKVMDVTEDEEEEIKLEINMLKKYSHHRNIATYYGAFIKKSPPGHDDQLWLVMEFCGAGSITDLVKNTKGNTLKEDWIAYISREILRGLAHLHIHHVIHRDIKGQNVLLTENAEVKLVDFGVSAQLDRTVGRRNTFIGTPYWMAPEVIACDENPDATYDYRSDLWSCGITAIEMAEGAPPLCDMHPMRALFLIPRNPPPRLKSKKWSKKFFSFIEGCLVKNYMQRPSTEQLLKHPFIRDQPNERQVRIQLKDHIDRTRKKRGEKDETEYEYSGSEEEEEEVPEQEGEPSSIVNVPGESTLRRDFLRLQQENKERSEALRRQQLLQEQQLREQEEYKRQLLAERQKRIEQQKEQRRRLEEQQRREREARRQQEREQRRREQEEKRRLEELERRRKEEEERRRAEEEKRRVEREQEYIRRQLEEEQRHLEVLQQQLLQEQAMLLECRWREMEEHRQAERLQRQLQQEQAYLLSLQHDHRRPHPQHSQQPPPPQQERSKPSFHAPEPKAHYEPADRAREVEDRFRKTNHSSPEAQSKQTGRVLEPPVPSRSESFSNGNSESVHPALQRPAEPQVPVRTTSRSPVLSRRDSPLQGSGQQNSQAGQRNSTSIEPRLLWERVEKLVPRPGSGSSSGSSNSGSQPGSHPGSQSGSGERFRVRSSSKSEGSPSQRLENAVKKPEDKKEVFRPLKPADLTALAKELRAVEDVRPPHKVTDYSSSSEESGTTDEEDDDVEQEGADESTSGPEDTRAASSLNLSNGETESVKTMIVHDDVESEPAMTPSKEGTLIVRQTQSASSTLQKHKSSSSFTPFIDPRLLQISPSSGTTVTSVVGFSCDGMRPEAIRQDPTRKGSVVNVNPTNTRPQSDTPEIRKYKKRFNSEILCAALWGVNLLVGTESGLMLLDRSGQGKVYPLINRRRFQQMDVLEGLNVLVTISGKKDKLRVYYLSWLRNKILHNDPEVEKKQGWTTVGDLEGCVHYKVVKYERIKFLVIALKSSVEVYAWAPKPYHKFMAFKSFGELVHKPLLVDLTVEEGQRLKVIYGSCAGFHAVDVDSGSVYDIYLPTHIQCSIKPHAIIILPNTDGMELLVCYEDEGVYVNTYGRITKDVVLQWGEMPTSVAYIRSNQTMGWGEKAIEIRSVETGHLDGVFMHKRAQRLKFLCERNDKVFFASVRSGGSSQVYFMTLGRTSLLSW

[6] = biological target: PDGFRB (human) (UniProt P09619)
[7] = biological target: ACVR1 (human) (UniProt Q04771)
[8] = biological target: NEK4 (human) (UniProt P51957)
[9] = biological target: CAMK1D (human) (UniProt Q8IU85)
[10] = biological target: CAMK2B (human) (UniProt Q13554)
[11] = biological target: CAMKK1 (human) (UniProt Q8N5S9)
[12] = biological target: WNK3 (human) (UniProt Q9BYP7)
[13] = biological target: STK25 (human) (UniProt O00506)
[14] = biological target: PDGFRA (human) (UniProt P16234)
[15] = biological target: GRK5 (human) (UniProt P34947)
[16] = biological target: ALK (human) (UniProt Q9UM73)
[17] = biological target: CDK1 CCNB1 (human) (UniProt P06493+P14635)
[18] = biological target: EGFR (human) (UniProt P00533)
[19] = biological target: CAMK1 (human) (UniProt Q14012)
[20] = biological target: DYRK1A (human) (UniProt Q13627)
[21] = biological target: CDK7 CCNH MNAT1 (human) (UniProt P50613+P51948+P51946)
[22] = biological target: TGFBR1 (human) (UniProt P36897)
[23] = biological target: NEK2 (human) (UniProt P51955)
[24] = biological target: PRKCZ (human) (UniProt Q05513)
[25] = biological target: MINK1 (human) (UniProt Q8N4C8)
[26] = biological target: CSNK1G1 (human) (UniProt Q9HCP0)
[27] = biological target: CDK2 CCNE1 (human) (UniProt P24941+P24864)
[28] = biological target: LIMK1 (human) (UniProt P53667)
[29] = biological target: LCK (human) (UniProt P06239)
[30] = biological target: PRKCI (human) (UniProt P41743)
[31] = biological target: CHUK (human) (UniProt O15111)
[32] = biological target: ADRBK1 (human) (UniProt P25098)
ADRBK1 (human), sequence (P25098 whole entry, looked up): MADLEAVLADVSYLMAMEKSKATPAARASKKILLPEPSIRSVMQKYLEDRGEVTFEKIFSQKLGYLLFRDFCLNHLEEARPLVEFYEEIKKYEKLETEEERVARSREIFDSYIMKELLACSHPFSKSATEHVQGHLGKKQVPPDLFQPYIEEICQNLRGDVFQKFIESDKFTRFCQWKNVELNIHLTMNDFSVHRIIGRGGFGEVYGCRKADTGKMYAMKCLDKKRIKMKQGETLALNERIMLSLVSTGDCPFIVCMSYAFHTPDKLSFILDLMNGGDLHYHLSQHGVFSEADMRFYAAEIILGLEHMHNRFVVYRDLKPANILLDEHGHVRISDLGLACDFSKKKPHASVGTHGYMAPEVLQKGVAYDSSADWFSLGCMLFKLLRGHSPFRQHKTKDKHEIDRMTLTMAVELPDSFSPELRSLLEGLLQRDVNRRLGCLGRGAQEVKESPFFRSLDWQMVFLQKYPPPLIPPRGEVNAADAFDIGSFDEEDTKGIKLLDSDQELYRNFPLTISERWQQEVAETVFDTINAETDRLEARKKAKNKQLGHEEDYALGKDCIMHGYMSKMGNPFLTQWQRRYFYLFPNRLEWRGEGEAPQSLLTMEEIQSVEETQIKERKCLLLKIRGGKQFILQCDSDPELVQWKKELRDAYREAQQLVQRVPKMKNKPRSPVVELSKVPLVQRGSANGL

[33] = biological target: MELK (human) (UniProt Q14680)
[34] = biological target: PRKD3 (human) (UniProt O94806)
PRKD3 (human), sequence (O94806 whole entry, looked up): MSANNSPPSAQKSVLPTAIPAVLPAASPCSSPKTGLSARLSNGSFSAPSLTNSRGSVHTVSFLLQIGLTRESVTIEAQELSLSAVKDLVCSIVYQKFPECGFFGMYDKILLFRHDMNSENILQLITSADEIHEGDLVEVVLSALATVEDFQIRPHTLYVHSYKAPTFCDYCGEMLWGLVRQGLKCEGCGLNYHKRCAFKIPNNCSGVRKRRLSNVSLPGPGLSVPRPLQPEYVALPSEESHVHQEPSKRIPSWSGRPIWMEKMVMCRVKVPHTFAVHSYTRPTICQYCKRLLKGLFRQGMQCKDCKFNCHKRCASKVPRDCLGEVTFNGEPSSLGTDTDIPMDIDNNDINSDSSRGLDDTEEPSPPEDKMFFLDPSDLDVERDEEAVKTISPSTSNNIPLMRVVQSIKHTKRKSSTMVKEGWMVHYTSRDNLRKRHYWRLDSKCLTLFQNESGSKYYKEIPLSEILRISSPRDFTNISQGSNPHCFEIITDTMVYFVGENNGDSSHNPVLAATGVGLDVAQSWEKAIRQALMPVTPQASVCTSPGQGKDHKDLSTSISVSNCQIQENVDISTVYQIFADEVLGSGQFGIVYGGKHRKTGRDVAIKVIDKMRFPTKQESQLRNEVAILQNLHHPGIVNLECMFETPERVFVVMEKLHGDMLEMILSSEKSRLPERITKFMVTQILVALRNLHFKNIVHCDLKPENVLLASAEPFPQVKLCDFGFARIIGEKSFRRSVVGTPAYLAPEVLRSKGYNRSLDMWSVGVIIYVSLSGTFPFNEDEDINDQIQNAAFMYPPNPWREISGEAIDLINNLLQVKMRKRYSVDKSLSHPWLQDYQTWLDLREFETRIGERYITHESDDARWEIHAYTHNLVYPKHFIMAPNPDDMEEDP

[35] = biological target: HIPK3 (human) (UniProt Q9H422)
HIPK3 (human), sequence (Q9H422 whole entry, looked up): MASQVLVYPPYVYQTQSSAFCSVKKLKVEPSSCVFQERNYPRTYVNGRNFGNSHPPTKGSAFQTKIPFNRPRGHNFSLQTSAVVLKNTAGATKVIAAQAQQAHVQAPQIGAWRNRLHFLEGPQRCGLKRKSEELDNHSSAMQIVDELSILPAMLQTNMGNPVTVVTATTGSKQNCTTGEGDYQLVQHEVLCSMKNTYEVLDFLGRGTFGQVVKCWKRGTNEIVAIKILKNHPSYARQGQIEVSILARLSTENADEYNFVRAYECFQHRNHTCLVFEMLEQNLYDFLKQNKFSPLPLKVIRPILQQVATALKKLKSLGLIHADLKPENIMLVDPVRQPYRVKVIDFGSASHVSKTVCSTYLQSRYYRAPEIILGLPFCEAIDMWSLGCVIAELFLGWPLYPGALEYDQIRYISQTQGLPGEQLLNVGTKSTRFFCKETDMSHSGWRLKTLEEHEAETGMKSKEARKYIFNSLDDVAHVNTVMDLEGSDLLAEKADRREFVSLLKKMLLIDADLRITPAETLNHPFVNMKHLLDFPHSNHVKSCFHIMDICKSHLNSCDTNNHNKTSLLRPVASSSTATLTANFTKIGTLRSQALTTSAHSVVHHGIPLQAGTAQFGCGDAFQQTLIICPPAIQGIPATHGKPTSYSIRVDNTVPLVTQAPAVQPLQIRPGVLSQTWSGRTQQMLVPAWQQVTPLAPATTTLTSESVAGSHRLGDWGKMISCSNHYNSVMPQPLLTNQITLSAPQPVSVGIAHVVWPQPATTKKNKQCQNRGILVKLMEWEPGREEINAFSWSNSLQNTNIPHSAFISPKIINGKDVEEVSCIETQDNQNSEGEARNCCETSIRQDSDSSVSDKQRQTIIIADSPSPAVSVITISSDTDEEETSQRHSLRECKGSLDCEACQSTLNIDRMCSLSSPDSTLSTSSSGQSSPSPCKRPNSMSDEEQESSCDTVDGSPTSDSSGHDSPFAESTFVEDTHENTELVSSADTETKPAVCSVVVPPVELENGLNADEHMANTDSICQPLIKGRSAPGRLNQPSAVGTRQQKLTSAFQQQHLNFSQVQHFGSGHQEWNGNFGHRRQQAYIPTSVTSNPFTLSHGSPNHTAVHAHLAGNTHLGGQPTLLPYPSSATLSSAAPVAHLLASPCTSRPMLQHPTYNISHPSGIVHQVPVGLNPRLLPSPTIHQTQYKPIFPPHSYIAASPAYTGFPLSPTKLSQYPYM

[36] = biological target: SRMS (human) (UniProt Q9H3Y6)
[37] = biological target: PRKCA (human) (UniProt P17252)
[38] = biological target: NTRK1 (human) (UniProt P04629)
[39] = biological target: PRKD1 (human) (UniProt Q15139)
PRKD1 (human), sequence (Q15139 whole entry, looked up): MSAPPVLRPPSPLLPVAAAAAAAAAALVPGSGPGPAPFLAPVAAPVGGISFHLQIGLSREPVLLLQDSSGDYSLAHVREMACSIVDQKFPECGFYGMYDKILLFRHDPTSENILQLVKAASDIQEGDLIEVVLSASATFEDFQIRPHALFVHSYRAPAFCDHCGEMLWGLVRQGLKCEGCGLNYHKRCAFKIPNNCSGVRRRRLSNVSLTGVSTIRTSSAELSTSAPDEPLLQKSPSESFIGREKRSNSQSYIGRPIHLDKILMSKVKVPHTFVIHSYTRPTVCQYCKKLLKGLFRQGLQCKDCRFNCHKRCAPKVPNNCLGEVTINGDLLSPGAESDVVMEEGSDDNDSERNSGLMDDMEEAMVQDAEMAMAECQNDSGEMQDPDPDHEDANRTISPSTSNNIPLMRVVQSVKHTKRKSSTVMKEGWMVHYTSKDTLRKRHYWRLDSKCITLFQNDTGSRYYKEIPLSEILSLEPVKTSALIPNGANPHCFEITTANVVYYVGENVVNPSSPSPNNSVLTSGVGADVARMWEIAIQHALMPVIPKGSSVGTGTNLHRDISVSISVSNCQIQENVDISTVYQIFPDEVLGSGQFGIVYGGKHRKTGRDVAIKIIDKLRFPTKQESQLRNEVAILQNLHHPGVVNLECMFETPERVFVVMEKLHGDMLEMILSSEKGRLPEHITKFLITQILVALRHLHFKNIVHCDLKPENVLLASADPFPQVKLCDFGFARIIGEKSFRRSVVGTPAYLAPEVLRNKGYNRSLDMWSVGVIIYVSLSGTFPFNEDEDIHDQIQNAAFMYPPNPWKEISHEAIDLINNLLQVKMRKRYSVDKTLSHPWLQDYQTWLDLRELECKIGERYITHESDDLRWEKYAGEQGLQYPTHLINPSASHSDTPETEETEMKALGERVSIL

[40] = biological target: PRKCG (human) (UniProt P05129)
[41] = biological target: GRK6 (human) (UniProt P43250)
[42] = biological target: AKT3 (human) (UniProt Q9Y243)

Work on CCN(CC)CCNC(=O)c1c(C)[nH]c(/C=C2\C(=O)Nc3ccc(Cl)cc32)c1C yielded a residual activity [1] of 67.1%, a residual activity [2] of 95.9% and a residual activity [3] of 88.3%. The residual activity [4] was 88.8%, the residual activity [5] was 4.33% and the residual activity [6] was 9.28%. For the same compound, the residual activity [7] was 108%, the residual activity [8] was 97% and the residual activity [9] was 60.2%. The residual activity [10] was 27.3%, the residual activity [11] was 47.7% and the residual activity [12] was 86.3%. The residual activity [13] was 56.1%, the residual activity [14] was 25.9% and the residual activity [15] was 82.7%. The residual activity [16] was 3.45%, the residual activity [17] was 109% and the residual activity [18] was 97%. It also gave a residual activity [19] of 75.9%, a residual activity [20] of 47.2% and a residual activity [21] of 72.8%. The residual activity [22] was 95.5%, the residual activity [23] was 77.2% and the residual activity [24] was 104%. The residual activity [25] was 4.4%, the residual activity [26] was 69.2% and the residual activity [27] was 90%. It also gave a residual activity [28] of 98.4%, a residual activity [29] of 11.8% and a residual activity [30] of 91.9%. It also gave a residual activity [31] of 102%, a residual activity [32] of 104% and a residual activity [33] of 16.7%. It also gave a residual activity [34] of 8.04%, a residual activity [35] of 50.8% and a residual activity [36] of 102%. The residual activity [37] was 93.1%, the residual activity [38] was 8.73% and the residual activity [39] was 11.3%. The residual activity [40] was 101%, the residual activity [41] was 46.3% and the residual activity [42] was 84.2%.
